Experimental data taken from PMC12216181 (Nature Communications, 2025).

Key:
EV-D68 US/MO/14-18947 [1] = experiment: Plaque assay, EV-D68 US/MO/14-18947 in RD cells; assay type: cell-based; conditions: Enterovirus D, EVD68, RD
EV-A71 Tainan/4643/1998 = experiment: Plaque assay, EV-A71 Tainan/4643/1998; assay type: cell-based; conditions: Enterovirus A, EVA71, plaque assay
EV-D68 US/MO/14-18947 [2] = experiment: Time-of-addition experiment, single cycle of EV-D68 replication in RD cells; assay type: cell-based, Enterovirus D68; conditions: 3 µM
[3] = tested on: EV-D68 US/MO/14-18947 passaged viruses; experiment: Serial passage experiment 1: drug sensitivity of passaged viruses; assay type: cell-based, Enterovirus D68; conditions: Enterovirus D, CPE assay
EV-D68 US/IL/14-18952 = experiment: EV-D68 infection neonatal mouse model; assay type: in vivo, Swiss Webster mice; conditions: for Weight at DPI14: 50 mg/kg i.p. daily
[4] = Drug concentration in the spinal cord by LC-MS/MS; assay type: in vivo, Swiss Webster mouse pups; conditions: Swiss Webster, mouse, ip, 50 mg/kg, one hour after the intraperitoneal injection
[5] = Tolerability in uninfected Jun6504-treated mice; assay type: in vivo; conditions: 50 mg/kg dose, uninfected treated animals
EV-D68 [6] = experiment: IHC staining of spinal cord sections of EV-D68-infected mice; assay type: in vivo, Swiss Webster pups; conditions: 8 DPI, 24-h delayed treatment model
EV-D68 [7] = conditions: AG129 mice; cited from earlier work
EV-D68 [8] = conditions: EV-D68 infection neonatal mouse model; cited from earlier work
EV-D68-associated AFM = conditions: patients with EV-D68-associated AFM; cited from earlier work
EV-D68 [9] = conditions: EV-D68 animal infection models; cited from earlier work

Q: Which EC50 (EV-D68 US/MO/14-18947 [1]) does the source give for `CC(C)n1ncc2c(C(=O)NCC3(C)CNC3)cc(C3CC3)nc21` [Jun6504] here?
A: 0.13 µM

Q: And the EC50 (EV-A71 Tainan/4643/1998)?
A: 0.22 µM

Q: And the “effect on antiviral potency” value (EV-D68 US/MO/14-18947 [2]; added at 5 hpi)?
A: significant reduction in the antiviral potency

Q: And the effect on efficacy (EV-D68 US/MO/14-18947 [2]; added at 7 hpi)?
A: almost complete loss of efficacy

Q: What about the “effect on EV-D68 amplification” value (EV-D68 US/MO/14-18947 [2]; added before or at 3 h post-infection) of the same molecule?
A: completely inhibited EV-D68 amplification

Q: And the EC50 ([3]; EVD68, P3 virus, selection pressure 400 nM)?
A: 0.8 µM

Q: What about the EC50 ([3]; EVD68, P6 virus, selection pressure 3.2 μM) of the same molecule?
A: 3.38 µM

Q: And the “Weight at DPI14” value (EV-D68 US/IL/14-18952; 24-h delayed treatment model, control 8.65 ± 0.23 g)?
A: 9.59 ± 0.27 g

Q: What about the “Viral titer in spinal cord” value (EV-D68 US/IL/14-18952; DPI5 after 4 daily doses, 24-h delayed model, control 19,834 ± 11,519) of the same molecule?
A: 4520 ± 1796 TCID50

Q: And the “Weight at DPI14” value (EV-D68 US/IL/14-18952; immediate treatment model, control 7.92 ± 0.46 g)?
A: 9.29 ± 0.14 g

Q: And the concentration at 1 h [4]?
A: ~575 ng/g

Q: What about the tolerability [5] of the same molecule?
A: no signs of pain, weight loss, or death were observed

Q: What about the “EV-D68-infected (NeuN+) neurons in the cervical enlargement” value (EV-D68 [6]) of the same molecule?
A: no infected (NeuN+) neurons were observed

Q: What about the “ChAT-positive motor neurons in lumbar spinal cord” value (EV-D68 [6]; treated animals with paralysis score 0) of the same molecule?
A: many ChAT-positive motor neurons present

Q: With `CC(C)S(=O)(=O)n1c(N)nc2ccc(/C(=N/O)c3ccccc3)cc21` [enviroxime] as the molecule, how does the therapeutic efficacy (EV-D68 [7]) read?
A: no therapeutic efficacy

Q: For `CNCCC(Oc1ccc(C(F)(F)F)cc1)c1ccccc1` (stereo not shown) [fluoxetine], which “effect on motor impairment and viral titers” value (EV-D68 [8]) is on record?
A: did not reduce motor impairment or viral titers in the muscle and spinal cord

Q: And the neurological outcomes (EV-D68-associated AFM)?
A: failed to improve neurological outcomes

Q: Which “in vivo antiviral activity” value (EV-D68 [9]) does the source give for `N=C(N)N` [guanidine] here?
A: have shown in vivo antiviral activity

Q: Which therapeutic efficacy (EV-D68 [7]) does the source give for `CCOC(=O)c1ccc(OCCC2CCN(c3ccc(C)nn3)CC2)cc1` [pirodavir] here?
A: no therapeutic efficacy

Q: Which therapeutic efficacy (EV-D68 [7]) does the source give for `Cc1cc(CCCOc2c(C)cc(-c3noc(C(F)(F)F)n3)cc2C)on1` [pleconaril] here?
A: no therapeutic efficacy

Q: For `NC(=O)c1ncn([C@@H]2O[C@H](CO)[C@@H](O)[C@H]2O)n1` [ribavirin], which therapeutic efficacy (EV-D68 [7]) is on record?
A: no therapeutic efficacy

Q: With `CCOC(=O)/C=C/[C@H](C[C@@H]1CCNC1=O)NC(=O)[C@@H](CC(=O)[C@@H](NC(=O)c1cc(C)on1)C(C)C)Cc1ccc(F)cc1` [rupintrivir] as the molecule, how does the therapeutic efficacy (EV-D68 [7]) read?
A: no therapeutic efficacy
